Assay results from article PMC10134573 (Biochemistry, 2022).
Blank lines part the entries; values can stand above or below the molecule they belong to.

Assays:
CheA WT (Tm CheA) = biological target: T1, CheA WT (Tm CheA) (Thermotoga maritima, UniProt Q56310); test: TNP-ATP displacement, fluorescence; assay type: binding
T1 sequence (Q56310 1-671): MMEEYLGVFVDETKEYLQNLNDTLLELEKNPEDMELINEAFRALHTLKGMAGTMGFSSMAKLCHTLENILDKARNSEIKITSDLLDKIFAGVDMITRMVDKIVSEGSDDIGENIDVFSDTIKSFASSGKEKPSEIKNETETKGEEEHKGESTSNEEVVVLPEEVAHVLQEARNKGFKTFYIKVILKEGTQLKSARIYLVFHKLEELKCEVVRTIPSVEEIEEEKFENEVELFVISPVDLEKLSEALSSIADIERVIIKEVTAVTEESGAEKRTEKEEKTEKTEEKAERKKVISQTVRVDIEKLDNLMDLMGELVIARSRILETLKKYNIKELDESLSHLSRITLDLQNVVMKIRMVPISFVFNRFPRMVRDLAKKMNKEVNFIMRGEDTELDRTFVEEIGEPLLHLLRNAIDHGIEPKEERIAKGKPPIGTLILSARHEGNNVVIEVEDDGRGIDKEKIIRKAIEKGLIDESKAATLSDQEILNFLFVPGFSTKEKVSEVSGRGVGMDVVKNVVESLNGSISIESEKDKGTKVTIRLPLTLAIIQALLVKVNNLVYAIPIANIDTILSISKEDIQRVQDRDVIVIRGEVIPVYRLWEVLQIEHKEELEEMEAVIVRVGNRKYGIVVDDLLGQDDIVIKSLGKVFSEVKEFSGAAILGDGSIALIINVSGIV

SEC + other: SAXS = biological target: the molecule itself; test: SEC + other: SAXS

IC50 (CheA WT (Tm CheA)): 405 ± 21 µM
Molecule: Nc1ncnc2c1ncn2[C@@H]1O[C@H](COP(=O)(O)OP(=O)(O)O)[C@@H](O)[C@H]1O [ADP]

B1: Thermotoga maritima CheA WT (enzyme, UniProt Q56310 1-671, looked up)
chain: T1 sequence (Q56310 1-671)
stoichiometry N (SEC + other: SAXS): 2
